# Measurements taken from ChEMBL document CHEMBL1150515, “Synthesis and structure-activity relationships of novel THF 1-methylcarbapenems II” (1997).
# Experiments:
# [1] = system: Acinetobacter calcoaceticus; assay: Antimicrobial activity against Acinetobacter calcoaceticus (GC 756); format: functional
# [2] = Antimicrobial activity against Citrobacter freundii (GC 2211); format: functional
# [3] = target: T1, Dipeptidase 1 (Sus scrofa) (UniProt P22412); assay: Relative hydrolysis to that of imipenem was determined by hog renal dehydropeptidase
# T1 sequence (whole entry): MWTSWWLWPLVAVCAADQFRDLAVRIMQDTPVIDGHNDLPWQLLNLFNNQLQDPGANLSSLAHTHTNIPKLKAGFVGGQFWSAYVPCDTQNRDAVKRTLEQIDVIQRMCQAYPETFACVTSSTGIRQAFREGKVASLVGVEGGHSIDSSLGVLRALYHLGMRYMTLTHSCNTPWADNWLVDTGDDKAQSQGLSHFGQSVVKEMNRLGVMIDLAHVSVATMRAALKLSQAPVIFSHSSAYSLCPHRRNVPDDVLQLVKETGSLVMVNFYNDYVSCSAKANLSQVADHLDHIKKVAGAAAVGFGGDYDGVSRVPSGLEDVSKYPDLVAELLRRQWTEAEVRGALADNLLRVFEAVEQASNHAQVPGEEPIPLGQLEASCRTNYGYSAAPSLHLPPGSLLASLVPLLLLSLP
# [4] = Antimicrobial activity against Enterococcus faecium (GC 1182); format: functional
# [5] = Antimicrobial activity against Enterobacter cloacae (GC 2209); format: functional
# [6] = Antimicrobial activity against Enterococcus faecalis (GC 842); format: functional
# [7] = system: Escherichia coli; assay: Antimicrobial activity against Escherichia coli (ATCC 25922); format: functional
# [8] = system: Escherichia coli; assay: Antimicrobial activity against Escherichia coli (GC 1792); format: functional
# [9] = system: Escherichia coli; assay: Antimicrobial activity against Escherichia coli (GC 2205); format: functional
# [10] = Antimicrobial activity against Morganella morganii (GC 2213); format: functional
# [11] = system: Pseudomonas aeruginosa; assay: Antimicrobial activity against Pseudomonas aeruginosa (ATCC 27853); format: functional
# [12] = system: Pseudomonas aeruginosa; assay: Antimicrobial activity against Pseudomonas aeruginosa (GC 1544 OprD); format: functional
# [13] = system: Staphylococcus aureus; assay: Antimicrobial activity against Staphylococcus aureus (ATCC 29213); format: functional
# [14] = system: Staphylococcus aureus; assay: Antimicrobial activity against methicillin - resistant Staphylococcus aureus (GC 2220); format: functional
# [15] = Antimicrobial activity against Xanthomonas maltophilia (GC 562); format: functional; settings: Stenotrophomonas maltophilia
# [16] = target: T1, Dipeptidase 1 (Sus scrofa); assay: Relative hydrolysis of compound to that of imipenem was determined by hog renal dehydropeptidase; format: functional
# [17] = system: Stenotrophomonas maltophilia; assay: The compound was evaluated for the antimicrobial activity against Xanthomonas maltophilia (GC 562); format: functional
# [18] = system: Staphylococcus aureus; assay: The compound was evaluated for the antimicrobial activity against Staphylococcus aureus (ATCC 29213); format: functional
Compound,MIC [1],MIC [2],Relative hydrolysis [3],MIC [4],MIC [5],MIC [6],MIC [7],MIC [8],MIC [9],MIC [10],MIC [11],MIC [12],MIC [13],MIC [14],MIC [15],Relative hydrolysis [16],MIC [17],MIC [18]
C[C@@H](O)[C@H]1C(=O)N2C(C(=O)[O-])=C(S[C@@H]3CCO[C@@H]3CN(C)C)[C@H](C)[C@H]12.[Na+],4 mg/L,0.25 mg/L,7.5,64 mg/L,≤ 0.12 mg/L,1 mg/L,0.03 mg/L,0.06 mg/L,0.06 mg/L,0.5 mg/L,16 mg/L,32 mg/L,0.06 mg/L,4 mg/L,> 128 mg/L,,,
CNCC(=O)NCC1CC(SC2=C(C(=O)[O-])N3C(=O)[C@H]([C@@H](C)O)[C@H]3[C@H]2C)CO1.[Na+] (stereo partly specified),2 mg/L,0.25 mg/L,,> 128 mg/L,≤ 0.06 mg/L,4 mg/L,≤ 0.06 mg/L,≤ 0.06 mg/L,≤ 0.06 mg/L,0.25 mg/L,32 mg/L,32 mg/L,≤ 0.06 mg/L,16 mg/L,> 128 mg/L,,,
C[C@@H](N)C(=O)NC[C@H]1OCC[C@H]1SC1=C(C(=O)[O-])N2C(=O)[C@H]([C@@H](C)O)[C@H]2[C@H]1C.[Na+],8 mg/L,1 mg/L,3,> 128 mg/L,0.25 mg/L,2 mg/L,≤ 0.06 mg/L,0.12 mg/L,≤ 0.06 mg/L,1 mg/L,64 mg/L,64 mg/L,≤ 0.06 mg/L,8 mg/L,> 128 mg/L,,,
CNC[C@H]1OCC[C@H]1SC1=C(C(=O)[O-])N2C(=O)[C@H]([C@@H](C)O)[C@H]2[C@H]1C.[Na+],4 mg/L,0.12 mg/L,10,> 64 mg/L,≤ 0.06 mg/L,0.5 mg/L,≤ 0.06 mg/L,≤ 0.06 mg/L,≤ 0.06 mg/L,0.5 mg/L,8 mg/L,32 mg/L,≤ 0.06 mg/L,1 mg/L,> 128 mg/L,,,
CC(=O)NC[C@H]1OCC[C@H]1SC1=C(C(=O)[O-])N2C(=O)[C@H]([C@@H](C)O)[C@H]2[C@H]1C.[Na+],16 mg/L,2 mg/L,4,> 128 mg/L,0.5 mg/L,8 mg/L,≤ 0.06 mg/L,0.12 mg/L,≤ 0.06 mg/L,0.5 mg/L,128 mg/L,> 128 mg/L,0.12 mg/L,16 mg/L,> 128 mg/L,,,
C[C@H](N)C(=O)N[C@@H](C)C(=O)NC[C@H]1OCC[C@H]1SC1=C(C(=O)[O-])N2C(=O)[C@H]([C@@H](C)O)[C@H]2[C@H]1C.[Na+],32 mg/L,8 mg/L,13,> 128 mg/L,2 mg/L,4 mg/L,≤ 0.06 mg/L,≤ 0.06 mg/L,0.12 mg/L,2 mg/L,64 mg/L,> 128 mg/L,1 mg/L,64 mg/L,> 128 mg/L,,,
C[C@H](N)C(=O)NCC1CC(SC2=C(C(=O)[O-])N3C(=O)[C@H]([C@@H](C)O)[C@H]3[C@H]2C)CO1.[Na+] (stereo partly specified),8 mg/L,1 mg/L,,> 128 mg/L,0.25 mg/L,4 mg/L,≤ 0.06 mg/L,≤ 0.06 mg/L,≤ 0.06 mg/L,1 mg/L,32 mg/L,64 mg/L,0.12 mg/L,8 mg/L,> 128 mg/L,10,,
C[C@@H](O)[C@H]1C(=O)N2C(C(=O)[O-])=C(S[C@@H]3CCO[C@@H]3CN)[C@H](C)[C@H]12.[Na+],2 mg/L,≤ 0.06 mg/L,8.5,64 mg/L,≤ 0.06 mg/L,0.5 mg/L,≤ 0.06 mg/L,≤ 0.06 mg/L,≤ 0.06 mg/L,0.5 mg/L,8 mg/L,16 mg/L,≤ 0.06 mg/L,1 mg/L,> 128 mg/L,,,
CCN1CCN(C(=O)NCC2CC(SC3=C(C(=O)[O-])N4C(=O)[C@H]([C@@H](C)O)[C@H]4[C@H]3C)CO2)C(=O)C1=O.[Na+] (stereo partly specified),128 mg/L,32 mg/L,13,> 128 mg/L,8 mg/L,16 mg/L,2 mg/L,4 mg/L,0.25 mg/L,16 mg/L,> 128 mg/L,128 mg/L,0.5 mg/L,32 mg/L,> 128 mg/L,,,
C[C@@H](O)[C@H]1C(=O)N2C(C(=O)O)=C(SCCNC=N)C[C@H]12 [IMIPENEM ANHYDROUS],0.25 mg/L,0.25 mg/L,100,64 mg/L,≤ 0.06 mg/L,1 mg/L,0.12 mg/L,≤ 0.06 mg/L,0.12 mg/L,1 mg/L,1 mg/L,16 mg/L,≤ 0.06 mg/L,1 mg/L,> 128 mg/L,,,
C[C@H](N)C(=O)NC[C@H]1OCC[C@H]1SC1=C(C(=O)[O-])N2C(=O)[C@H]([C@@H](C)O)[C@H]2[C@H]1C.[Na+],16 mg/L,1 mg/L,12,> 128 mg/L,0.25 mg/L,4 mg/L,≤ 0.06 mg/L,≤ 0.06 mg/L,≤ 0.06 mg/L,1 mg/L,32 mg/L,64 mg/L,0.12 mg/L,8 mg/L,> 128 mg/L,,,
C[C@@H](O)[C@H]1C(=O)N2C(C(=O)[O-])=C(SC3COC(C/N=C/N)C3)[C@H](C)[C@H]12.[Na+] (stereo partly specified),2 mg/L,≤ 0.06 mg/L,,> 128 mg/L,≤ 0.06 mg/L,2 mg/L,≤ 0.06 mg/L,≤ 0.06 mg/L,≤ 0.06 mg/L,0.5 mg/L,8 mg/L,16 mg/L,≤ 0.06 mg/L,8 mg/L,> 128 mg/L,,,
C[C@@H](O)[C@H]1C(=O)N2C(C(=O)[O-])=C(SC3COC(C/N=C/N(C)C)C3)[C@H](C)[C@H]12.[Na+] (stereo partly specified),16 mg/L,0.5 mg/L,,> 128 mg/L,0.12 mg/L,8 mg/L,0.12 mg/L,0.12 mg/L,0.12 mg/L,2 mg/L,16 mg/L,32 mg/L,0.12 mg/L,16 mg/L,> 128 mg/L,,,
C[C@@H](O)[C@H]1C(=O)N2C(C(=O)[O-])=C(SC3COC(CN)C3)[C@H](C)[C@H]12.[Na+] (stereo partly specified),1 mg/L,0.06 mg/L,19,> 128 mg/L,≤ 0.06 mg/L,2 mg/L,≤ 0.06 mg/L,0.06 mg/L,≤ 0.06 mg/L,0.25 mg/L,4 mg/L,8 mg/L,,8 mg/L,,,> 128 mg/L,≤ 0.06 mg/L
C[C@@H](O)[C@H]1C(=O)N2C(C(=O)[O-])=C(S[C@@H]3CCO[C@@H]3C/N=C\N)[C@H](C)[C@H]12.[Na+],8 mg/L,0.5 mg/L,18,> 128 mg/L,≤ 0.06 mg/L,2 mg/L,≤ 0.06 mg/L,≤ 0.06 mg/L,0.12 mg/L,1 mg/L,16 mg/L,32 mg/L,≤ 0.06 mg/L,4 mg/L,> 128 mg/L,,,
CC(=O)NCC1CC(SC2=C(C(=O)[O-])N3C(=O)[C@H]([C@@H](C)O)[C@H]3[C@H]2C)CO1.[Na+] (stereo partly specified),8 mg/L,2 mg/L,4,> 128 mg/L,0.5 mg/L,8 mg/L,≤ 0.06 mg/L,0.12 mg/L,≤ 0.06 mg/L,0.5 mg/L,64 mg/L,128 mg/L,0.12 mg/L,16 mg/L,> 128 mg/L,,,
C[C@@H](O)[C@H]1C(=O)N2C(C(=O)[O-])=C(SC3COC(C[N+](C)(C)C)C3)[C@H](C)[C@H]12 (stereo partly specified),16 mg/L,1 mg/L,,> 128 mg/L,0.25 mg/L,8 mg/L,0.25 mg/L,0.25 mg/L,0.25 mg/L,4 mg/L,32 mg/L,64 mg/L,0.12 mg/L,16 mg/L,> 128 mg/L,,,
